According to US4983328A, “N-(4-(3-aminopropyl)aminobutyl)-2-(ω-gua nidino-fatty-acid-amido(-2-substituted-ethanamide, salt thereof, and process for preparation thereof” (Bristol-Myers Company, priority 1981, dated 1991):
Converted amounts (≈) assume the structure as drawn. Read-outs that look alike come from different tables or passages of the source.

How the values were obtained:
[1] = chemical stability: retention (%) after heating at 60° C. for 4 hours, by HPLC; format: physicochemical
Protocol: The chemical stability of the present compound was evaluated by determining the retention (%) after heating at 60° C. for 4 hours. In Table 5 are shown the test results together with those for spergualin as reference. The retention was determined by means of high performance liquid chromatography (HPLC). The column was packed with Nucleosil® 5C18. The solvent used for spergualin was a mixture (6:94) of acetonitrile -0.01M sodium pentanesulfonate +0.01M Na2 HPO4 (pH 3), while that for the compounds of this invention was a mixture of acetonitrile -0.005M sodium pentanesulfonate ±0.01M Na2 HPO4 (pH 3). The mixture ratio in the latter case was varied for each particular compound. For instance, a mixing ratio of 10:90 was used for Compound No. 9, while that of 7:93 for Compound No. 22.

[2] = cumulative toxicity in mice (maximum tolerated dose, once a day for 6 consecutive days); conditions: mouse, in vivo, ip, i.p. once a day for 6 consecutive days, total dose, read-out: Maximum Tolerated Dose (total dose not causing death)
In short: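 Mice dosed intraperitoneally once a day for 6 consecutive days with a fixed amount per unit body weight. The value is the maximum total dose not causing death.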

[3] = acute toxicity in mice (single intraperitoneal administration); conditions: mouse, in vivo, ip, read-out: LD50 (median lethal dose on single administration)
Protocol: In Table 8 median lethal doses (LD50) of typical compounds of this invention are shown, measured in mice upon single intraperitoneal administration, as well as maximum tolerated doses in terms of total dose when a fixed amount per unit body weight was administered intraperitoneally to mice once a day for 6 consecutive days.
*Median lethal dose on single administration.

[4] = system: mouse leukemia L-1210 cells; test: growth inhibitory activity to cancer cells in vitro (L-1210, 48 hours); format: cell-based; conditions: for inhibition at 5 µg/mL: L1210, 5 mcg/ml; for inhibition at 10 µg/mL: L1210, 10 mcg/ml; for inhibition at 20 µg/mL: L1210, 20 mcg/ml; for inhibition at 40 µg/mL: L1210, 40 mcg/ml; for IC50: L1210, L-1210 cells, read-out: 50% inhibitory concentration; for inhibition at 2.5 µg/mL: L1210, 2.5 mcg/ml
In short: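 L-1210 cells from DBA/2 mouse ascites, cultured at 5×10^4 cells per well in RPMI 1640 with 10% FCS and 5 μM 2-mercaptoethanol, 37° C, CO2, for 48 h with compound. Cell counts by Coulter Counter gave % inhibition (1−T/C)×100, and IC50 was derived across concentrations.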

[5] = read-out: Growth inhibition (%), (1-T/C) × 100

SMILES | remaining at 4 h ([1]; pH 2, pH 2) | remaining at 4 h ([1]; pH 3, pH 3) | remaining at 4 h ([1]; pH 4, pH 4) | remaining at 4 h ([1]; pH 6, pH 6) | remaining at 4 h ([1]; pH 8, pH 8) | remaining at 4 h ([1]; pH 9, pH 9) | remaining at 4 h ([1]; pH 10, pH 10) | MTD [2] | LD50 ([3]; mice, single i.p.) | inhibition at 5 µg/mL [4, 5] | inhibition at 10 µg/mL [4, 5] | inhibition at 20 µg/mL [4, 5] | inhibition at 40 µg/mL [4, 5] | inhibition at 80 µg/mL ([4]; L1210, 80 mcg/ml, read-out: Growth inhibition (%), (1-T/C) × 100) | IC50 [4] | inhibition at 1.25 µg/mL ([4]; L1210, 1.25 mcg/ml, read-out: Growth inhibition (%), (1-T/C) × 100) | inhibition at 2.5 µg/mL [4, 5] | remaining at 4 h ([1]; pH 5, pH 5) | remaining at 4 h ([1]; pH 7, pH 7) | LD50 [3]
N=C(N)NCCCCCCC(=O)NC(OCCO)C(=O)NCCCCNCCCN (stereo not drawn) [Compound 14, N-[4-(3-aminopropyl)aminobutyl]-2-(7-guanidinoheptanamido)-2-(2-hydroxy)ethoxyethanamide] | 71.8% | 90.6% | 100% | 100% | 100% | 97.5% | 97.3% | > 150 mg/kg | 25 to 50 mg/kg | 22.3% | 24.6% | 29.9% | 42.7% | 58.6% | 52 µg/mL (≈ 120 µM) | – | – | – | – | –
N=C(N)NCCCCCCC(=O)NC(OCc1ccccc1)C(=O)NCCCCNCCCN (stereo not drawn) [Compound 15, N-[4-(3-aminopropyl)aminobutyl]-2-(7-guanidinoheptanamido)-2-benzyloxyethanamide] | 76.5% | 91.4% | 100% | 100% | 100% | 99% | 96.2% | > 75 mg/kg | 12.5 to 25 mg/kg | 71% | 94.5% | 97.7% | 100% | – | 3.1 µg/mL (≈ 6.49 µM) | 27.1% | 39% | – | – | –
CCCCOC(NC(=O)C[C@@H](O)CCCCNC(=N)N)C(=O)NCCCCNCCCN (stereo partly drawn) [Compound 24, N-[4-(3-aminopropyl)aminobutyl]-2-(7-guanidino-3-hydroxyheptanamido)-2-butoxyethanamide] | 76.3% | – | 100% | 100% | 100% | 97.1% | 94.8% | > 300 mg/kg | > 50 mg/kg | 75.6% | 89.5% | 95% | 97.2% | – | 2.6 µg/mL (≈ 5.66 µM) | – | 47.3% | 100% | 100% | –
N=C(N)NCCCC[C@H](O)CC(=O)NC(OCc1ccccc1)C(=O)NCCCCNCCCN (stereo partly drawn) [Compound 26, N-[4-(3-aminopropyl)aminobutyl]-2-(7-guanidino-3-hydroxyheptanamido)-2-benzyloxyethanamide] | 77.2% | – | 100% | 100% | 100% | 95.9% | 94.5% | > 75 mg/kg | – | 79% | 90.2% | 96.6% | 97.3% | – | 2.2 µg/mL (≈ 4.46 µM) | – | 54.2% | 100% | 100% | 12.5 to 25 mg/kg
